Among the data in PubChem BioAssay (NCI) are TGI and GI50 values, retold here.

Among the test systems are SK-MEL-28 melanoma; MCF7 breast; HCT-15 colon; MDA-MB-435; SF-539 CNS; PC-3 prostate; HT29 colon; BT-549 breast; T-47D breast; CCRF-CEM leukemia.
Common to all, as to experiment: NCI tumour cell line growth inhibition, 48 h

SMILES strings stand for the structures. Where “and” joins values, the source holds several entries; their conditions need not be identical. Equal values may be shown once.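 Method: 48-hour compound exposure of cells in 96-well plates, five concentrations, linear interpolation of endpoints. GI50: concentration for 50% inhibition of growth. TGI denotes the concentration required for complete inhibition of growth.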

With `CCC(C(=O)c1cccs1)C(O)(C(F)(F)F)C(F)(F)F` (centres undefined), the TGI in the test with SK-MEL-28 melanoma, in the test with MCF7 breast, with HCT-15 colon, with MDA-MB-435, in the test with SF-539 CNS and with PC-3 prostate was greater than 100 µM in each case. In addition, the TGI in the test on HT29 colon, in the test on BT-549 breast and in the test with T-47D breast was greater than 100 µM in each case.
Consider `C[n+]1c2cc(N)ccc2cc2ccc(N)cc21` (tested in a mixture with another compound), for which the GI50 with SK-MEL-28 melanoma was 1.33 µM; with MCF7 breast, 0.372 µM; in the test on HCT-15 colon it was 0.512 µM; in the test with MDA-MB-435, 0.615 µM; in the test with SF-539 CNS it was 0.498 µM; in the test on PC-3 prostate, 0.332 µM. In addition, the GI50 is 0.431 µM with HT29 colon, 0.624 µM with BT-549 breast and 0.33 µM in the test with T-47D breast. The TGI worked out at 7.48 µM with SK-MEL-28 melanoma; 17.9 µM in the test on MCF7 breast; 4.71 µM with HCT-15 colon; 2.1 µM in the test with MDA-MB-435; 6.22 µM in the test with SF-539 CNS; 12.9 µM with PC-3 prostate. Besides, the TGI with HT29 colon was found to be 3.87 µM; in the test with BT-549 breast, 5.25 µM; in the test with T-47D breast it was 3.02 µM.
Regarding `COc1cc(-c2nc(-c3nnc(-c4ccc(F)c(Cl)c4)o3)c3ccccn23)cc(OC)c1OC`, the GI50 was 4.55 µM in the test on HCT-15 colon, 3.09 µM in the test on MDA-MB-435, greater than 100 µM in the test with CCRF-CEM leukemia and 1.67 µM with BT-549 breast. The TGI was greater than 100 µM with HCT-15 colon, greater than 100 µM in the test with MDA-MB-435, greater than 100 µM with CCRF-CEM leukemia and 4.46 µM with BT-549 breast.
Take `COC1=C(C)C(=O)C2=C(C1=O)C(CO)N1C(C#N)C3CC4C(C1C2N1CCOC41)N3C` (centres undefined): the GI50 was 0.00146 µM and 0.0129 µM with HCT-15 colon; 0.00946 µM and 0.0889 µM and 0.0764 µM in the test with PC-3 prostate; 0.00373 µM and 0.0232 µM and < 0.01 µM in the test on BT-549 breast; 0.00033 µM and < 0.0144 µM in the test on T-47D breast. Moreover, the TGI in the test on PC-3 prostate is 0.663 µM and 0.387 µM; in the test with HT29 colon it was 0.423 µM and 0.0773 µM; in the test with BT-549 breast, 0.00951 µM and 0.0873 µM and < 0.0111 µM.
Consider `C=CCC(N[C@@H](CO)c1ccccc1)c1ccccn1` (some centres undefined), for which the GI50 in the test with SK-MEL-28 melanoma was greater than 100 µM; with HCT-15 colon, greater than 100 µM; with MDA-MB-435 it was greater than 100 µM; with SF-539 CNS, greater than 100 µM; with PC-3 prostate, greater than 100 µM; in the test with CCRF-CEM leukemia, 74.4 µM. The GI50 with HT29 colon, in the test with BT-549 breast and in the test on T-47D breast was greater than 100 µM in each case. The TGI with SK-MEL-28 melanoma, in the test with HCT-15 colon, in the test with MDA-MB-435, with SF-539 CNS, with PC-3 prostate and in the test on CCRF-CEM leukemia was greater than 100 µM in each case. Further, the TGI in the test on HT29 colon, with BT-549 breast and with T-47D breast was greater than 100 µM throughout.
Turning to `CCc1nc(-n2c(CC)nc3ccccc3c2=O)nc(N)c1-c1ccc(Cl)cc1`, the GI50 in the test with SK-MEL-28 melanoma is greater than 100 µM; with MCF7 breast, greater than 50.9 µM; in the test with HCT-15 colon it was 8.91 µM; in the test on MDA-MB-435 it was 7.12 µM; in the test on SF-539 CNS, 30.4 µM; with PC-3 prostate, 5.74 µM. Besides, the GI50 in the test with HT29 colon is 16.2 µM; in the test with BT-549 breast, greater than 100 µM; with T-47D breast, greater than 60.4 µM. The TGI in the test with SK-MEL-28 melanoma, in the test with MCF7 breast, in the test with HCT-15 colon, with MDA-MB-435, with SF-539 CNS and in the test on PC-3 prostate was greater than 100 µM each time. In addition, the TGI in the test on HT29 colon, with BT-549 breast and in the test with T-47D breast was greater than 100 µM in each case.
As to `Fc1c[c-]c(-c2ccccn2)c(F)c1.[CH3-].[Pt+2].c1ccc([PH+](c2ccccc2)c2ccccn2)cc1`, the GI50 was 1.64 µM with SK-MEL-28 melanoma; 1.22 µM in the test on MCF7 breast; 1.44 µM in the test with HCT-15 colon; 1.74 µM in the test on MDA-MB-435; 1.58 µM in the test on SF-539 CNS; 1.41 µM with PC-3 prostate. In addition, the values for the GI50 in the test with CCRF-CEM leukemia, with HT29 colon and in the test on T-47D breast were 1.38 µM, 2.44 µM and 1.13 µM, respectively. For the same molecule, the TGI in the test with SK-MEL-28 melanoma is 3.15 µM; in the test on MCF7 breast, 3.23 µM; in the test on HCT-15 colon it was 3.59 µM; in the test on MDA-MB-435, 3.45 µM; with SF-539 CNS, 3.07 µM; with PC-3 prostate, 3.89 µM. Besides, the TGI is greater than 100 µM with CCRF-CEM leukemia, greater than 100 µM with HT29 colon and 5.78 µM with T-47D breast.
For the molecule `Cc1cc(S(N)(=O)=O)c(S/C(=N\Nc2ccc([N+](=O)[O-])cc2)c2ccc(O)cc2)cc1Cl`, the GI50 in the test on SK-MEL-28 melanoma is 2.62 µM; with MCF7 breast, 2.19 µM; in the test with HCT-15 colon, 3.54 µM; in the test on MDA-MB-435, 1.8 µM; in the test on SF-539 CNS it was 3.39 µM; with PC-3 prostate, 3.26 µM. In addition, the GI50 was 3.29 µM in the test on HT29 colon, 7.68 µM in the test with BT-549 breast and 2.54 µM in the test on T-47D breast. The TGI in the test with SK-MEL-28 melanoma stood at 5.73 µM; with MCF7 breast, 5.06 µM; in the test with HCT-15 colon, 23.2 µM; in the test on MDA-MB-435, 3.44 µM; in the test with SF-539 CNS, 8.74 µM; in the test with PC-3 prostate, 8.55 µM. The TGI with HT29 colon stood at 7.35 µM; in the test with BT-549 breast, 22.7 µM; in the test with T-47D breast, 6.64 µM.
On to `Clc1ccccc1-c1nc(-c2ccncc2)no1`, for which the TGI in the test with SK-MEL-28 melanoma, in the test with MCF7 breast, in the test with HCT-15 colon, in the test on MDA-MB-435, in the test on SF-539 CNS and in the test with PC-3 prostate was greater than 100 µM in each case. Further, the TGI with HT29 colon, in the test with BT-549 breast and with T-47D breast was greater than 100 µM throughout.
Regarding `O=S(=O)(CC#CCCCOCC#Cc1ccccc1C#CCS(=O)(=O)c1ccccc1)c1ccccc1`, the GI50 is 16.3 µM in the test on MCF7 breast; 22.6 µM in the test with HCT-15 colon; 26 µM in the test with MDA-MB-435; 22.9 µM in the test on SF-539 CNS; 20.4 µM with PC-3 prostate; 3.23 µM in the test on CCRF-CEM leukemia. The figures for the GI50 in the test on BT-549 breast and in the test on T-47D breast were 19 µM and greater than 100 µM, respectively. The TGI with MCF7 breast is 35.3 µM; in the test with HCT-15 colon it was 45.6 µM; in the test with MDA-MB-435, 62.4 µM; in the test with SF-539 CNS it was 45.3 µM; with PC-3 prostate it was 65.3 µM; in the test on CCRF-CEM leukemia, 10.2 µM. The TGI with BT-549 breast was 34.8 µM; in the test on T-47D breast it was greater than 100 µM.
